Experimental data from ChEMBL document CHEMBL1158732, “Intercedensides D-I, cytotoxic triterpene glycosides from the sea cucumber Mensamaria intercedens Lampert” (2005).

Key:
[1] = Cytotoxicity against human KBVIN cells by SRB method; assay type: functional; details: read-out: ED50 (the source's name)
[2] = tested on: KB; experiment: Cytotoxicity against human KB cells by SRB method; assay type: functional; details: read-out: ED50 (the source's name)
[3] = tested on: A549; experiment: Cytotoxicity against human A549 cells by SRB method; assay type: functional; details: read-out: ED50 (the source's name)
[4] = tested on: PC-3; experiment: Cytotoxicity against human PC3 cells by SRB method; assay type: functional; details: read-out: ED50 (the source's name)
[5] = tested on: CAKI-1; experiment: Cytotoxicity against human Caki1 cells by SRB method; assay type: functional; details: read-out: ED50 (the source's name)
[6] = tested on: MCF7; experiment: Cytotoxicity against human MCF7 cells by SRB method; assay type: functional; details: read-out: ED50 (the source's name)
[7] = tested on: HCT-8; experiment: Cytotoxicity against human HCT8 cells by SRB method; assay type: functional; details: read-out: ED50 (the source's name)
[8] = tested on: SK-MEL-2; experiment: Cytotoxicity against human SK-MEL-2 cells by SRB method; assay type: functional; details: read-out: ED50 (the source's name)
[9] = Cytotoxicity against human U87MG cells by SRB method; assay type: functional, U-87MG ATCC; details: U-87 MG, read-out: ED50 (the source's name)
[10] = tested on: 1A9; experiment: Cytotoxicity against human 1A9 cells by SRB method; assay type: functional; details: read-out: ED50 (the source's name)

CO[C@@H]1[C@@H](O)[C@H](O[C@@H]2[C@@H](O)[C@H](O[C@H]3[C@H](O)[C@@H](O)[C@H](O[C@H]4[C@H](O[C@H]5CC[C@]6(C)[C@@H]7CC[C@]89C(=O)O[C@@](C)(CCC=C(C)C)[C@@]8(O)[C@@H](OC(C)=O)C[C@@]9(C)C7=CC[C@H]6C5(C)C)OC[C@@H](OS(=O)(=O)[O-])[C@@H]4O)O[C@@H]3CO)OC[C@H]2O)O[C@H](CO)[C@H]1O.[Na+] [INTERCEDENSIDE F] gave an EC50 [1] of 3.2 µg/mL, an EC50 [2] of 3.2 µg/mL and an EC50 [3] of 1.7 µg/mL. It also gave an EC50 [4] of 2.3 µg/mL, an EC50 [5] of 1.7 µg/mL and an EC50 [6] of 2.1 µg/mL. It also gave an EC50 [7] of 1.9 µg/mL, an EC50 [8] of 2.1 µg/mL and an EC50 [9] of 3.3 µg/mL. For the same compound, the EC50 [10] was 1.7 µg/mL.
CO[C@@H]1[C@@H](O)[C@H](O[C@@H]2[C@@H](O)[C@H](O[C@H]3[C@H](O)[C@@H](O)[C@H](O[C@H]4[C@H](O[C@H]5CC[C@]6(C)[C@@H]7CC[C@]89C(=O)O[C@@](C)(/C=C\C=C(C)C)[C@@]8(O)[C@@H](OC(C)=O)C[C@@]9(C)C7=CC[C@H]6C5(C)C)OC[C@@H](OS(=O)(=O)[O-])[C@@H]4O)O[C@@H]3CO)OC[C@H]2O)O[C@H](CO)[C@H]1O.[Na+] [LNTERCEDENSIDE D] showed an EC50 [1] of 4.3 µg/mL, an EC50 [2] of 3.7 µg/mL and an EC50 [3] of 1.8 µg/mL. For the same compound, the EC50 [4] was 3.3 µg/mL, the EC50 [5] was > 5 µg/mL and the EC50 [6] was 2.4 µg/mL. For the same compound, the EC50 [7] was 2.9 µg/mL, the EC50 [8] was 4.2 µg/mL and the EC50 [9] was 4.1 µg/mL. The EC50 [10] was 2.4 µg/mL.
For CO[C@@H]1[C@@H](O)[C@H](O[C@@H]2[C@@H](O)[C@H](O[C@@H]3CO[C@@H](O[C@H]4[C@H](O[C@H]5CC[C@]6(C)[C@@H]7CC[C@]89C(=O)O[C@@](C)(/C=C\C=C(C)C)[C@@]8(O)[C@@H](OC(C)=O)C[C@@]9(C)C7=CC[C@H]6C5(C)C)OC[C@@H](OS(=O)(=O)[O-])[C@@H]4O)[C@H](O)[C@H]3O)OC[C@H]2O)O[C@H](CO)[C@H]1O.[Na+] [LNTERCEDENSIDE E], the EC50 [1] was 2 µg/mL, the EC50 [2] was 1.9 µg/mL and the EC50 [3] was 1.4 µg/mL. For the same compound, the EC50 [4] was 1.7 µg/mL, the EC50 [5] was 1.6 µg/mL and the EC50 [6] was 1.4 µg/mL. The EC50 [7] was 1.1 µg/mL, the EC50 [8] was 1.6 µg/mL and the EC50 [9] was 2.1 µg/mL. The EC50 [10] was 1.7 µg/mL.
CO[C@@H]1[C@@H](O)[C@H](O[C@@H]2[C@@H](O)[C@H](O[C@@H]3CO[C@@H](O[C@H]4[C@H](O[C@H]5CC[C@]6(C)[C@@H]7CC[C@]89C(=O)O[C@@](C)(/C=C\C=C(C)C)C8[C@@H](OC(C)=O)C[C@@]9(C)C7=CC[C@H]6C5(C)C)OC[C@@H](OS(=O)(=O)[O-])[C@@H]4O)[C@H](O)[C@H]3O)OC[C@H]2O)O[C@H](CO)[C@H]1O.[Na+] (stereo not given in full) [LNTERCEDENSIDE G] showed an EC50 [1] of 3.9 µg/mL, an EC50 [2] of 3.3 µg/mL and an EC50 [3] of 1.6 µg/mL. It also gave an EC50 [4] of 2 µg/mL, an EC50 [5] of 3.8 µg/mL and an EC50 [6] of 2 µg/mL. The EC50 [7] was 1.8 µg/mL, the EC50 [8] was 2.4 µg/mL and the EC50 [9] was 3.3 µg/mL. For the same compound, the EC50 [10] was 1.9 µg/mL.
With CO[C@@H]1[C@@H](O)[C@H](O[C@@H]2[C@@H](O)[C@H](O[C@H]3[C@H](O)[C@@H](O)[C@H](O[C@H]4[C@H](O[C@H]5CC[C@]6(C)[C@@H]7CC[C@]89C(=O)O[C@@](C)(/C=C\C=C(C)C)[C@@]8(O)[C@@H](OC(C)=O)C[C@@]9(C)C7=CC[C@H]6C5(C)C)OC[C@@H](OS(=O)(=O)[O-])[C@@H]4O)O[C@@H]3C)OC[C@H]2O)O[C@H](CO)[C@H]1O.[Na+] [LNTERCEDENSIDE H] the EC50 [1] was 3.7 µg/mL, the EC50 [2] was 3 µg/mL and the EC50 [3] was 1.4 µg/mL. It also gave an EC50 [4] of 2.2 µg/mL, an EC50 [5] of 1 µg/mL and an EC50 [6] of 1.8 µg/mL. The EC50 [7] was 1.9 µg/mL, the EC50 [8] was 2.2 µg/mL and the EC50 [9] was 3.2 µg/mL. For the same compound, the EC50 [10] was 0.96 µg/mL.
